The values that follow come from patent US12606541B2, “PPARg modulators and methods of use” (Eisai R&D Management Co., Ltd., priority 2020, dated 2026).

The subject of one assay is UM-UC-9 engineered cells. Put plainly: Cell proliferation / short-term viability assay, CellTiter-Glo 144 h. Particulars: Homo sapiens, UM-UC-9, 144 h, read-out: CTGlo 144 h UMUC9.5, G150. The assay is classed as cell-based, human. Summed up: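 Viability read by CellTiter-Glo 2.0 luminescence at day 7 versus DMSO-vehicle wells and a T0 plate measured on day 0. Cells: UM-UC-9 engineered assay-ready stocks, 500 cells/well in high-glucose DMEM with 10% FBS, 37° C, 5% CO2.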
(In general: Cellular ATP, detected with luciferase, serves as a proxy for viable cell number.)

The target in another assay is T1, His6-TEV-PPARγ-(234-505) (Homo sapiens, UniProt P37231).
T1 construct: The His6-TEV-PPARγ-(234-505) protein for assay was expressed and purified; TEV cleavage site (N); made in house
T1 sequence (P37231 234-505): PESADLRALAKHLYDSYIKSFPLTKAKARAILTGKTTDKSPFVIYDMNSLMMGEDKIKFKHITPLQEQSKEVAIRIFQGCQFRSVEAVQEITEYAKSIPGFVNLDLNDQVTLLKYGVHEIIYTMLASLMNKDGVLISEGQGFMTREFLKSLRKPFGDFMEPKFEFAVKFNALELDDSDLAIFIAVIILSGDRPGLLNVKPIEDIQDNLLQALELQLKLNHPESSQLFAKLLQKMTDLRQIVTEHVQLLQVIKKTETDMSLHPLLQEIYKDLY
Put plainly: TR-FRET Assay to Measure Co-R Peptide Recruitment to PPARγ. Format: biochemical. To be noted: Co-R peptide (SMRT-ID2) recruitment; top final concentration 20 μM; read-out: TR-FRET i-Ag; AC50. Summed up: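 Corepressor recruitment is measured by adding terbium-labeled anti-His antibody and FITC SMRT-ID2 peptide, at 5 and 200 nM final, after a 20-minute room-temperature protein–compound incubation. After one further hour, signal is converted to percent response between DMSO and 500 nM T0070907 wells.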
For orientation: TR-FRET usually uses a lanthanide donor and a delayed reading to cut background.

`COc1cc(-c2cc(C(=O)N3CCC(O)(C(=O)NCc4cccc(Cl)c4)CC3)n[nH]2)c(Cl)cn1` [Example 171, 1-(5-(5-chloro-2-methoxypyridin-4-yl)-1H-pyrazole-3-carbonyl)-N-(3-chlorobenzyl)-4-hydroxypiperidine-4-carboxamide]: the IC50 in the assay with UM-UC-9 engineered cells was 1550 nM. Further, the AC50 at His6-TEV-PPARγ-(234-505) worked out at 210 nM.
For `COc1cc(-c2cc(C(=O)N3CCC(F)(C(=O)NCc4cccc(Cl)c4)CC3)n[nH]2)c(Cl)cn1` [Example 174, 1-(5-(5-chloro-2-methoxypyridin-4-yl)-1H-pyrazole-3-carbonyl)-N-(3-chlorobenzyl)-4-fluoropiperidine-4-carboxamide], in the assay with UM-UC-9 engineered cells, the IC50 is 407 nM. In addition, the AC50 on His6-TEV-PPARγ-(234-505) is 125 nM.
The corresponding values for `COc1cc(-c2cc(C(=O)N3CCC(C(=O)NCc4ccc(C)cn4)CC3)n[nH]2)c(Cl)cn1` [Example 176, 1-(5-(5-chloro-2-methoxypyridin-4-yl)-1H-pyrazole-3-carbonyl)-N-((5-methylpyridin-2-yl)methyl)piperidine-4-carboxamide] are 1840 nM and 376 nM.
Turning to `COc1cc(-c2cc(C(=O)N3CCC(C(=O)NCc4ccc(C(F)(F)F)nc4)CC3)n[nH]2)c(Cl)cn1` [Example 178, 1-(5-(5-chloro-2-methoxypyridin-4-yl)-1H-pyrazole-3-carbonyl)-N-((6-(trifluoro-15-methyl)pyridin-3-yl)methyl)piperidine-4-carboxamide], the IC50 in the assay with UM-UC-9 engineered cells stood at 1260 nM. Further, the AC50 at His6-TEV-PPARγ-(234-505) was determined as 344 nM.
The corresponding values for `COc1cc(-c2cc(C(=O)N3CCC(C(=O)NCc4cncc(Cl)c4)CC3)n[nH]2)c(Cl)cn1` [Example 179, 1-(5-(5-chloro-2-methoxypyridin-4-yl)-1H-pyrazole-3-carbonyl)-N-((5-chloropyridin-3-yl)methyl)piperidine-4-carboxamide] are 1530 nM and 321 nM.
The corresponding values for `COc1cc(-c2cc(C(=O)N3CCC(C(=O)NCc4ccc5cn[nH]c5c4)CC3)n[nH]2)c(Cl)cn1` [Example 180, N-((1H-indazol-6-yl)methyl)-1-(5-(5-chloro-2-methoxypyridin-4-yl)-1H-pyrazole-3-carbonyl)piperidine-4-carboxamide] are 707 nM and 144 nM.
The corresponding values for `COc1cc(-c2cc(C(=O)N3CCC(C(=O)NCc4c[nH]c5ccccc45)CC3)n[nH]2)c(Cl)cn1` [Example 181, N-((1H-indol-3-yl)methyl)-1-(5-(5-chloro-2-methoxypyridin-4-yl)-1H-pyrazole-3-carbonyl)piperidine-4-carboxamide] are 85.6 nM and 56.2 nM.
`COc1cc(-c2cc(C(=O)N3CCC(C(=O)NCc4ccc5cnccc5c4)CC3)n[nH]2)c(Cl)cn1` [Example 182, 1-(5-(5-chloro-2-methoxypyridin-4-yl)-1H-pyrazole-3-carbonyl)-N (isoquinolin-6-ylmethyl)piperidine-4-carboxamide]: the IC50 in the assay on UM-UC-9 engineered cells stood at 1600 nM. Further, the AC50 at His6-TEV-PPARγ-(234-505) was found to be 422 nM.
The corresponding values for `COc1cc(-c2cc(C(=O)N3CCC(C(=O)NC4CC(=O)N(c5ccccc5)C4)CC3)n[nH]2)c(Cl)cn1` (centres unmarked) [Example 183, 1-(5-(5-chloro-2-methoxypyridin-4-yl)-1H-pyrazole-3-carbonyl)-N-(5-oxo-1-phenylpyrrolidin-3-yl)piperidine-4-carboxamide] are 1650 nM and 233 nM.
The corresponding values for `COc1cc(-c2cc(C(=O)N3CCC(C(=O)NC4CCOc5ccccc54)CC3)n[nH]2)c(Cl)cn1` (centres unmarked) [Example 184, 1-(5-(5-chloro-2-methoxypyridin-4-yl)-1H-pyrazole-3-carbonyl)-N (chroman-4-yl)piperidine-4-carboxamide] are 384 nM and 215 nM.
The corresponding values for `COc1cc(-c2cc(C(=O)N3CCC(C(=O)NCc4cn(C)c5ccccc45)CC3)n[nH]2)c(Cl)cn1` [Example 187, 1-(5-(5-chloro-2-methoxypyridin-4-yl)-1H-pyrazole-3-carbonyl)-N-((1-methyl-1H-indol-3-yl)methyl)piperidine-4-carboxamide] are 114 nM and 41.7 nM.
Take `COc1cc(-c2cc(C(=O)N3CCC(C(=O)NCc4ccc5cc[nH]c5c4)CC3)n[nH]2)c(Cl)cn1` [Example 188, N-((1H-indol-6-yl)methyl)-1-(5-(5-chloro-2-methoxypyridin-4-yl)-1H-pyrazole-3-carbonyl)piperidine-4-carboxamide]: in the assay on UM-UC-9 engineered cells, the IC50 came out at 211 nM. Also, the AC50 on His6-TEV-PPARγ-(234-505) stood at 79.8 nM.
The corresponding values for `COc1cc(-c2cc(C(=O)N3CCC(C(=O)NCc4ccc(C)o4)CC3)n[nH]2)c(Cl)cn1` [Example 189, 1-(5-(5-chloro-2-methoxypyridin-4-yl)-1H-pyrazole-3-carbonyl)-N-((5-methylfuran-2-yl)methyl)piperidine-4-carboxamide] are 521 nM and 119 nM.
As for `COc1cc(-c2cc(C(=O)N3CCC(C(=O)NCc4cccc5[nH]ccc45)CC3)n[nH]2)c(Cl)cn1` [Example 190, N-((1H-indol-4-yl)methyl)-1-(5-(5-chloro-2-methoxypyridin-4-yl)-1H-pyrazole-3-carbonyl)piperidine-4-carboxamide], the IC50 in the assay with UM-UC-9 engineered cells was 91.8 nM. The AC50 on His6-TEV-PPARγ-(234-505) was found to be 24 nM.
The corresponding values for `COc1cc(-c2cc(C(=O)N3CCC(C(=O)NCc4cccc5[nH]ncc45)CC3)n[nH]2)c(Cl)cn1` [Example 192, N-((1H-indazol-4-yl)methyl)-1-(5-(5-chloro-2-methoxypyridin-4-yl)-1H-pyrazole-3-carbonyl)piperidine-4-carboxamide] are 375 nM and 83.3 nM.
For `COc1cc(-c2cc(C(=O)N3CCC(C(=O)NCc4ncc(C(F)(F)F)cc4Cl)CC3)n[nH]2)c(Cl)cn1` [Example 193, 1-(5-(5-chloro-2-methoxypyridin-4-yl)-1H-pyrazole-3-carbonyl)-N-((3-chloro-5-(trifluoromethyl)pyridin-2-yl)methyl)piperidine-4-carboxamide], the IC50 in the assay with UM-UC-9 engineered cells stood at 1200 nM. Further, the AC50 on His6-TEV-PPARγ-(234-505) came out at 394 nM.
The corresponding values for `COc1cc(-c2cc(C(=O)N3CCC(C(=O)NCc4cccc5cc[nH]c45)CC3)n[nH]2)c(Cl)cn1` [Example 194, N-((1H-indol-7-yl)methyl)-1-(5-(5-chloro-2-methoxypyridin-4-yl)-1H-pyrazole-3-carbonyl)piperidine-4-carboxamide] are 484 nM and 808 nM.
The corresponding values for `COc1cc(-c2cc(C(=O)N3CCC(C(=O)NC4CCN(c5ccccc5)CC4)CC3)n[nH]2)c(Cl)cn1` [Example 196, 1-(5-(5-chloro-2-methoxypyridin-4-yl)-1H-pyrazole-3-carbonyl)-N-(1-phenylpiperidin-4-yl)piperidine-4-carboxamide] are 1030 nM and 610 nM.
As to `COc1cc(-c2cc(C(=O)N3CCC(C(=O)NCc4ccc5n[nH]nc5c4)CC3)n[nH]2)c(Cl)cn1` [Example 197, N-((2H-benzo[d][1,2,3]triazol-5-yl)methyl)-1-(5-(5-chloro-2-methoxypyridin-4-yl)-1H-pyrazole-3-carbonyl)piperidine-4-carboxamide], the IC50 in the assay with UM-UC-9 engineered cells turned out to be 3930 nM. Moreover, at His6-TEV-PPARγ-(234-505), the AC50 came out at 197 nM.
